Square brackets hold non-standard residues; d marks the D form. Peptide text beside a SMILES is read from it. * marks the point of attachment. PEG12 = NCCOCCOCCOCCOCCOCCOCCOCCOCCOCCOCCOCCOCCC(=O)O; Palmitoyl = CCCCCCCCCCCCCCCC(=O)*; Dap = NC[C@H](N)C(=O)O
Experiments:
[1] = biological target: T1, ferroportin fused to green fluorescent protein (ECR293/Fpn-GFP cells) (Mus musculus, UniProt Q9JHI9); assay: Flow cytometry of ferroportin-GFP internalization and degradation in ECR293/Fpn-GFP cells; type: cell-based; conditions: concentration eliciting 50% of maximal loss of fluorescence generated by reference Hep25; 24 hours; read-out: EC50 (the source's name)
T1 sequence (Q9JHI9 1-570): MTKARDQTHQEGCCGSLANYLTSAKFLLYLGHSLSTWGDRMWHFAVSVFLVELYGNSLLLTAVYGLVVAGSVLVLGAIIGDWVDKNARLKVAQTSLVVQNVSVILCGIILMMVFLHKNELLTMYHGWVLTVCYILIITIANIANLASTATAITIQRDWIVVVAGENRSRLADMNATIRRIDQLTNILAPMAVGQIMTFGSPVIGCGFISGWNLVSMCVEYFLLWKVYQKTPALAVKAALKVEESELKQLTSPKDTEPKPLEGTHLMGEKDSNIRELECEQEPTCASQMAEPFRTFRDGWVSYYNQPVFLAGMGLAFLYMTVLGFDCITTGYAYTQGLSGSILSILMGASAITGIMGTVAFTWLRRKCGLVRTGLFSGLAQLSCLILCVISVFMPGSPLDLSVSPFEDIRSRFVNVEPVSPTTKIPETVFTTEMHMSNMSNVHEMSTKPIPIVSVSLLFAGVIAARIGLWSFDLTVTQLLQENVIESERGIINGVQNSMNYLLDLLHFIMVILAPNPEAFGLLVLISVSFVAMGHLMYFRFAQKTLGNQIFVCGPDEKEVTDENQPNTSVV
Procedure: In vitro activity may be measured by the dose-dependent loss of fluorescence of cells engineered to display ferroportin fused to green fluorescent protein as in Nemeth et al. (2006) Blood 107:328-33. […]
FLOW CYTOMETRY. The activity of peptides of the present invention was measured by flow cytometry as previously described. See Nemeth et al. (2006) Blood 107:328-333, which is herein incorporated by reference. ECR293/Fpn-GFP, a cell line stably transfected with a ponasterone-inducible ferroportin construct tagged at the C-terminus with green fluorescent protein was used. See Nemeth et al. (2004) Science 306:2090-2093, which is herein incorporated by reference. Briefly, the cells were plated on poly-D-lysine coated plates in the presence of 20 μM FAC, with or without 10 μM ponasterone. After 24 hours, ponasterone was washed off, and cells were treated with peptides for 24 hours. Cells were then trypsinized and resuspended at 1×10^6 cells/ml, and the intensity of green fluorescence was analyzed by flow cytometry. […] Cells not induced with ponasterone to express Fpn-GFP were used to establish a gate to exclude background fluorescence. Cells induced with ponasterone, but not treated with any peptides, were used as the positive control. Each peptide was tested over the range of concentrations (0, 0.01, 0.03, 0.1, 0.3, 1, 3 and 10 μM). Each peptide treatment was repeated independently 3 to 6 times.

C57/B16J mice = assay: Serum iron assay in mice after peptide administration; type: in vivo; conditions: i.p., 4 hours
Procedure: Serum iron assay. The decrease in serum iron after peptide administration is the principal measure of hepcidin activity. Thus, as provided herein, the hepcidin activity of selected peptides of the present invention were assayed in vivo by measuring serum iron in test subjects. […] Two weeks before the experiment, the mice were switched to a diet containing about 2-4 ppm iron (Harlan Teklad, Indianapolis, Ind.) in order to suppress endogenous hepcidin. Peptide stocks were diluted to desired concentrations in sterile phosphate buffered saline (PBS) or other diluents as described next. […] Mice were sacrificed 4 hours later, blood was collected by cardiac puncture, and serum was separated using MICROTAINER tubes (Becton Dickinson, Franklin Lakes, N.J.). Serum iron was determined by using a colorimetric assay (Diagnostic Chemicals, Oxford, Conn.), which was modified for the microplate format so that 10 μl serum was used per measurement. The results were expressed as the percentage of decrease in serum iron when compared with the average value of serum iron levels in PBS-treated mice.

CC[C@@H](C)[C@@H](NC(=O)[C@H](N)Cc1ccccc1)C(=O)N[C@H](CS)C(=O)N[C@@H](C(=O)N1CCC[C@@H]1C(=O)N[C@H](Cc1ccccc1)C(=O)N[C@H](Cc1c[nH]cn1)C(=O)N[C@@H](C(=O)N[C@H](CC(=O)O)C(N)=O)[C@H](C)O)[C@H](C)CC [Pr12]
DC50 [1]: 0.9 µM | serum iron (C57/B16J mice; 50 μg per mouse in PBS, vs PBS): significant decrease in serum iron after 4 hours

CCCCCCCCCCCCCCCC(=O)NC[C@H](NC(=O)CCCCCCCCCCCCCCC)C(=O)NCCOCCOCCOCCOCCOCCOCCOCCOCCOCCOCCOCCOCCC(=O)N[C@H](Cc1ccccc1)C(=O)N[C@@H](C(=O)N[C@H](CS)C(=O)N[C@@H](C(=O)N1CCC[C@@H]1C(=O)N[C@H](Cc1ccccc1)C(=O)N[C@H](Cc1c[nH]cn1)C(=O)N[C@@H](C(=O)N[C@H](CC(=O)O)C(N)=O)[C@H](C)O)[C@H](C)CC)[C@H](C)CC [Pr28] (Palmitoyl-[Dap](Palmitoyl)[PEG12][dF][dI][dC][dI][dP][dF][dH][dT][dD]-NH2)
serum iron (C57/B16J mice; 20 nmoles in liposomal solution): lesser ability to decrease serum iron than Pr27

CC[C@@H](C)[C@@H](NC(=O)[C@H](N)Cc1ccccc1)C(=O)N[C@H](CS)C(=O)N[C@@H](C(=O)N1CCC[C@@H]1C(=O)N[C@H](Cc1ccccc1)C(=O)N[C@H](Cc1c[nH]cn1)C(N)=O)[C@H](C)CC [riHep7ΔDT] (H-[dF][dI][dC][dI][dP][dF][dH]-NH2; N-terminus assumed)
DC50 [1]: 0.15 µM | serum iron (C57/B16J mice; 20 nmoles in PBS): slightly but not significantly reduced serum iron concentrations | serum iron (C57/B16J mice; 200 nmoles in PBS): serum iron concentrations significantly lower than those achieved after injection of PBS

CC[C@H](C)[C@H](NC(=O)[C@H](CS)NC(=O)[C@@H](NC(=O)[C@@H]1CCCN1C(=O)[C@H](Cc1ccccc1)NC(=O)[C@H](Cc1c[nH]cn1)NC(=O)[C@@H](NC(=O)[C@@H](N)CC(=O)O)[C@@H](C)O)[C@@H](C)CC)C(=O)N[C@@H](Cc1ccccc1)C(N)=O [Hep9]
serum iron (C57/B16J mice; 50 μg per mouse in PBS, vs PBS): did not result in a serum iron decrease
